# Assay results reported in patent US20240368168A1, “SARM1 ENZYME ACTIVITY INHIBITOR AND APPLICATION THEREOF” (ARTIVILA BIOPHARMA, priority 2021, published 2024).
# Structures can show the parent of a compound that is named as a salt.
# Assays:
# [1] = molecular target: T1, dN-SARM1 protein (Homo sapiens, UniProt Q6SZW1); assay: In vitro biochemical assay for inhibiting SARM1 enzymatic activity (IC50), PC6 fluorescence method; settings: 50 μM NAD, 50 μM PC6, 50 μM NMN activator
# T1 construct: the N-terminal mitochondrial localization signal peptide of SARM1 was removed
# T1 sequence (Q6SZW1 28-724): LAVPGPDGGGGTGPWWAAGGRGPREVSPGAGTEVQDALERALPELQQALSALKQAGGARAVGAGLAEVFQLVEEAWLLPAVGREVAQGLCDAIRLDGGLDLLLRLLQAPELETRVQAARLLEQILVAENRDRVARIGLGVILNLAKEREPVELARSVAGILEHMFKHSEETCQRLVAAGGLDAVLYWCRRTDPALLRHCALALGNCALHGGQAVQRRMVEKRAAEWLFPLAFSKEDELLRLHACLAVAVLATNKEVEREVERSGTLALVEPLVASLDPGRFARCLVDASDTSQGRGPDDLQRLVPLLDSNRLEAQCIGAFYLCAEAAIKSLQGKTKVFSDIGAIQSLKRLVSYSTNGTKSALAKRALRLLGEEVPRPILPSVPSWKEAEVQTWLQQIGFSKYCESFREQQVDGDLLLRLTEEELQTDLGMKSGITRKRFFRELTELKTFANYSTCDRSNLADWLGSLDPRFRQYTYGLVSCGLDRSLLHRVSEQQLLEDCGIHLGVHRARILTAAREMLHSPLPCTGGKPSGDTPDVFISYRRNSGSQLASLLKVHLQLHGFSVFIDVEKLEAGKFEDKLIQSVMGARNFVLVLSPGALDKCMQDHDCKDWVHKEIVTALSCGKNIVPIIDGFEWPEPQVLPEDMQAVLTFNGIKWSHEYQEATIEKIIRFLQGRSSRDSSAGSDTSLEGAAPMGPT
# Procedure: 200 μM compound was first added to a solution of 0.05 μg/ml dN-SARM1 in 50 mM Tris-HCl (pH 7.5). Half of the mixture was added to an equal volume of a solution of 0.05 μg/ml dN-SARM1 in 50 mM Tris-HCl (pH 7.5) and mixed. The drug was diluted 6 times in this manner, with the final concentrations being 200, 100, 50, 25, 12.5, 6.25, 3.125 μM, or 200, 50, 12.5, 3.125, 0.78, 0.195, 0.049 μM, respectively. The protein without inhibitors added, being used as control group, was incubated at room temperature for 10 minutes.
# 50 μM NAD, 50 μM PC6 as substrate and 50 μM NMN as activator were added to the dN-SARM1 protein incubated with the inhibitor and reacted for 30 minutes at room temperature. The concentration of each component was the final concentration in the reaction system.
# During the reaction, PC6 fluorescence spectrum dynamics were detected by a microplate reader, wherein the excitation wavelength and emission wavelength for detection were 390 nm and 520 nm, respectively. Finally, the reaction rate was used to express the activity of the protein, and the half inhibitory concentration was calculated. The higher the reaction rate, the stronger the protein activity, and the lower the inhibitory efficiency of the compound.
# The dose curve of compounds inhibiting SARM1 enzymatic activity was determined using the above method.
# [2] = molecular target: T2, SARM1 protein in iSARM1 (HEK293) cells (Homo sapiens, UniProt Q6SZW1); assay: Inhibitory activity in inducible SARM1 overexpressing cell line, intracellular cADPR level; assay type: cell-based; settings: activator CZ-48 100 μM, cADPR content
# T2 construct: The full-length SARM1 was synthesized into the pUC57 plasmid by WZ Biosciences Inc., and PCR was performed using pUC57-SARM1 as a DNA template
# T2 sequence (Q6SZW1 28-724): T1 sequence (Q6SZW1 28-724)
# Procedure: In this example, the gene sequence of SARM1 was amplified using PCR, and constructed into pInducer20-neo plasmid. pInducer20-SARM1 virus was packaged in a liposome and infected HEK293 to obtain an inducible SARM1-overexpressing cell line, which was labeled as iSARM1 (HEK293). The specific preparation was as follows:
# First, a 96-well culture plate was treated with 0.05 mg/ml polylysine for 5 minutes and washed once with PBS. 3×10^4 iSARM1 (HEK293) cells were plated into the 96-well plate and cultured overnight in a 37° C. and 5% incubator. The next day, the cells were added with an inhibitor with a final concentration of 50 μM, incubated in the incubator for 1.5 hours, added with activator CZ-48 with a final concentration of 100 μM, and incubated for 16 hours. Meanwhile, the cells without adding CZ-48 or without adding drug were set as control group. Finally, the intracellular cADPR level was detected to represent the activity of SARM1, and the inhibition rate of SARM1 in cells by 50 μM inhibitor was calculated.
# The cADPR measurement was performed as follows. First, the cells were washed once with PBS, and added with 150 μl of pre-cooled 0.6M perchloric acid (PCA) to quickly lyse the cells and precipitate the protein. The PCA supernatant was transferred to a 1.5 ml centrifuge tube. The protein in the culture medium was dissolved again with 100 μl of 1M NaOH. The supernatant was added with 0.5 ml of organic reagent mixture (trioctylamine:chloroform=1:3) to extract PCA from water. After sufficient shaking, the mixture was centrifuged at 12,000 rpm for 10 minutes. The solution was divided into 3 layers: the upper aqueous phase, containing the small molecules of interest; the lower organic phase, in which PCA was dissolved; and a thin protein layer between the upper and lower layers. The upper layer was transferred to a new centrifuge tube, added with 1M Tris-Mg at a ratio of 1:100 (1M Tris (pH 8.0): 1M MgCl2=9:1), added with NADase at a ratio of 1:250, and treated at 37° C. overnight to remove NAD^+ from the mixed solution. After the treatment was completed, the mixed solution was filtered using Millipore's 10 K 96-well filter plate to remove NADase.
# The cADPR content in the solution was determined through Cycling analysis method. The specific steps were as follows: 20 μl of the sample to be tested or the cADPR standard was taken and added to a 96-well opaque white plate. Preparation of reaction solution: 9.6 ml of PBS (pH 7.4), 200 μl of ethanol, 150 μl of 1 mg/ml AD, 10 μl of 10 mM FMN, 5 μl of 18 mg/ml Diaphorase, 10 μl of 10 mM Resazurin, and 100 μl of 1M Nam. Half of the reaction solution was divided and added with 0.2 μg/ml cyclase. The reaction solution without adding cyclase was used as control experiment. Each sample was divided into two groups, 3 replicates in each group. The reaction solutions containing or not containing cyclase were added to each group to perform the reaction. The reaction kinetic curve within 30 minutes was recorded (Ex:Em=544/599). The average slope of the reaction was calculated. Conversion was performed according to cADPR standard to obtain the accurate cADPR content. A curve of intracellular cADPR content vs corresponding inhibitor concentration was plotted. The half inhibitory concentration of the inhibitor was calculated.
SMILES,IC50 [1] [nM],EC50 [2] [nM]
CN(C(=O)OC(C)(C)C)c1ccc2ncc(-c3cccc(N)c3)n2c1 [Compound 2],< 1000,1000 to 10000
CN(C(=O)OC(C)(C)C)c1ccc2ncc(-c3ccc(S(N)(=O)=O)cc3)n2c1 [Compound 6],1000 to 10000,< 1000
CN(C(=O)OC(C)(C)C)c1ccc2ncc(-c3cccc(C(N)=O)c3)n2c1 [Compound 7],1000 to 10000,1000 to 10000
CN(C(=O)OC(C)(C)C)c1ccc2ncc(-c3ccccc3)n2c1 [Compound 8],1000 to 10000,1000 to 10000
NS(=O)(=O)c1cccc(-c2cnc3ccccn23)c1 [Compound 9],1000 to 10000,1000 to 10000
Cc1ccccc1-c1cnc2ccc(N(C)C(=O)OC(C)(C)C)cn12 [Compound 10],1000 to 10000,< 1000
CN(C(=O)OC(C)(C)C)c1ccc2ncc(-c3ccccc3Cl)n2c1 [Compound 11],1000 to 10000,< 1000
CN(C(=O)OC(C)(C)C)c1ccc2ncc(-c3cccs3)n2c1 [Compound 12],1000 to 10000,< 1000
COc1cccc(-c2cnc3ccc(N(C)C(=O)OC(C)(C)C)cn23)c1 [Compound 13],< 1000,1000 to 10000
COc1ccc(-c2cnc3ccc(N(C)C(=O)OC(C)(C)C)cn23)cc1 [Compound 14],1000 to 10000,1000 to 10000
CN(C(=O)OC(C)(C)C)c1ccc2ncc(-c3cccnc3)n2c1 [Compound 15],1000 to 10000,1000 to 10000
CN(C(=O)OC(C)(C)C)c1ccc2ncc(-c3ccncc3)n2c1 [Compound 17],1000 to 10000,1000 to 10000
"COCCOCC(=O)Nc1cccc(-c2cnc3ccc(N(C)C(=O)OC(C)(C)C)cn23)c1 [Compound 47, tert-butyl (3-(3-(2-(2-methoxyethoxy)acetamido)phenyl)imidazo[1,2-a]pyridin-6-yl)(methyl) carbamate]",< 1000,< 1000
"CNc1ccc2ncc(-c3ccc(S(N)(=O)=O)cc3)n2c1 [Compound 63, 4-(6-(methylamino)imidazo[1,2-a]pyridin-3-yl)benzenesulfonamide]",1000 to 10000,1000 to 10000
"CNc1ccc2ncc(-c3ccccc3)n2c1 [Compound 65, N-methyl-3-phenylimidazo[1,2-a]pyridin-6-amine]",< 1000,1000 to 10000
"CNc1ccc2ncc(-c3ccccc3Cl)n2c1 [Compound 68, 3-(2-chlorophenyl)-N-methylimidazo[1,2-a]pyridin-6-amine]",1000 to 10000,1000 to 10000
CNc1ccc2ncc(-c3cccs3)n2c1 [Compound 69],1000 to 10000,1000 to 10000
CNc1ccc2ncc(-c3cccc(OC)c3)n2c1 [Compound 70],1000 to 10000,1000 to 10000
"CN(C(=O)OC(C)(C)C)c1ccc2ncc(C3CCCCC3)n2c1 [Compound 84, tert-butyl (3-cyclohexylimidazo[1,2-a]pyridin-6-yl)(methyl)carbamate]",1000 to 10000,< 1000
"c1ccc(-c2cnc3ccc(NC4CCOC4)cn23)cc1 (centres unmarked) [Compound 87, 3-phenyl-N-(tetrahydrofuran-3-yl)imidazo[1,2-a]pyridin-6-amine]",< 1000,1000 to 10000
"CC(=O)Nc1cccc(-c2cnc3ccc(N(C)C(=O)OC(C)(C)C)cn23)c1 [Compound 96, tert-butyl (3-(3-acetylaminophenyl)imidazo[1,2-a]pyridin-6-yl)(methyl)carbamate]",< 1000,1000 to 10000
"CN(C(=O)OC(C)(C)C)c1ccc2ncc(-c3cccc(NC(=O)COCCOCCOCC(N)=O)c3)n2c1 [Compound 99, tert-butyl (3-(3-(2-(2-(2-(2-amino-2-oxoethoxy)ethoxy)ethoxy)acetamido)phenyl)imidazolin[1,2-a]pyridin-6-yl)(methyl)carbamate]",1000 to 10000,1000 to 10000
Cc1ncsc1-c1ccc(CNC(=O)[C@@H]2C[C@@H](O)CN2C(=O)[C@@H](NC(=O)COCCOCC(=O)Nc2cccc(-c3cnc4ccc(N(C)C(=O)OC(C)(C)C)cn34)c2)C(C)(C)C)cc1 [Compound 113],1000 to 10000,1000 to 10000
"CNc1ccc2ncc(-c3cccc(NC(=O)COCCOCC(=O)N[C@H](C(=O)N4C[C@H](O)C[C@H]4C(=O)NCc4ccc(-c5scnc5C)cc4)C(C)(C)C)c3)n2c1 [Compound 114, (2S,4R)-1-((S)-3,3-dimethyl-2-(2-(2-(2-((3-(6-(methylamino)imidazo[1,2-a]pyridin-3-yl)phenyl)amino)-2-oxoethoxy)ethoxy)acetamido)butyryl)-4-hydroxy-N-(4-(4-methylthiazol-5-yl)benzyl)pyrrolidin-2-carboxamide hydrochloride]",< 1000,1000 to 10000
CN(C(=O)OC(C)(C)C)c1ccc2ncc(-c3cccc(OCCOC4CCOC4)c3)n2c1 (centres unmarked) [Compound 155],,< 1000
O=C(Nc1cccc(-c2cnc3ccc(NC/C=C/c4ccccc4)cn23)c1)C1CCOCC1 [Compound 215],,< 1000
